# According to patent EP1614683B1, “Indazole compounds and pharmaceutical compositions for inhibiting protein kinases, and methods for their use” (priority 1999, dated 2001):
# Like-named read-outs stand apart in the source and are kept apart here.
# Key:
# [1] = molecular target: human FGF-R1 (Homo sapiens, UniProt P11362, C488A/C584S/L457V); assay: FGF-R spectrophotometric assay; assay type: biochemical; details: Table 1; compound concentration 1 µM; read-out: FGF-P* (% inhibition)
# Procedure: The spectrophotometric assay was carried out as described above for VEGF-R2, except for the following changes in concentration: FGF-R = 50 nM, ATP = 2 mM, and poly(E4Y1) =15 mM.
# [2] = molecular target: phosphorylated VEGF-R2Δ50 (Homo sapiens, UniProt P35968, DEL940-989/E990V); assay: biochemical; details: for inhibition at 1 µM: read-out: FLVK-P* (% inhibition); for inhibition at 0.05 µM: read-out: FLVK -P** (% inhibition)
# [3] = molecular target: T1, unphosphorylated VEGF-R2Δ50 (Homo sapiens, UniProt P35968, DEL940-989/E990V); assay: biochemical
# [4] = molecular target: LCK tyrosine kinase (Homo sapiens, UniProt P06239, C224D/P223M); assay: LCK spectrophotometric assay; assay type: biochemical; details: Table 1; compound concentration 1 µM; read-out: Lck-P* (% inhibition)
# Procedure: The spectrophotometric assay was carried out as described above for VEGF-R2, except for the following changes in concentration: LCK = 60 nM, MgCl2 = 0 mM, poly(E4Y1) = 20 mM.
# [5] = system: lung cancer cells (line MV522); assay: Cancer cell proliferation (MV522) assay; assay type: cell-based; details: MV522; Table 1; read-out: MV522 IC50
# Procedure, shortened: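 MTT reduction read-out was taken 72 h after addition of test agents, with no prior serum starvation. Cells were plated beforehand at two thousand per well in RPMI1640 containing 10% FBS and 2 mM glutamine and allowed one day to adhere.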
# [6] = molecular target: T2, human CHK1 (FL-CHK1) (Homo sapiens, UniProt O14757); assay: CHK1 coupled spectrophotometric assay; assay type: biochemical; details: read-out: CHK1* (% inhibition)
# T2 construct: C-terminally His-tagged full-length human CHK1 (FL-CHK1) was expressed using the baculovirus/insect cell system; made in house; host or cells: baculovirus/insect cell system
# T2 sequence (O14757 1-476): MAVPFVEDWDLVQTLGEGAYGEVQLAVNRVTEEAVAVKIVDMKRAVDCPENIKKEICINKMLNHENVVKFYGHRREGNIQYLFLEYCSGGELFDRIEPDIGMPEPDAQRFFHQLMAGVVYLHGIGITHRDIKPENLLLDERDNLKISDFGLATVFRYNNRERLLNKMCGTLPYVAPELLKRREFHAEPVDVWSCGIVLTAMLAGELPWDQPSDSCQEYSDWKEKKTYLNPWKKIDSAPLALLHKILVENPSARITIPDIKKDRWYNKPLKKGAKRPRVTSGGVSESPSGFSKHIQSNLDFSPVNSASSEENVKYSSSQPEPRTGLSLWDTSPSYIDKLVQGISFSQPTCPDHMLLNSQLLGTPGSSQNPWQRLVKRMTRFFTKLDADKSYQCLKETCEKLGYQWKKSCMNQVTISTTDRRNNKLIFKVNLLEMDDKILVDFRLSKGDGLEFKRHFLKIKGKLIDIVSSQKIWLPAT
# Procedure, shortened: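 His-tagged full-length human CHK1 from baculovirus/insect cells, 10 nM, phosphorylating Syntide-2. ADP formation coupled via PK/LDH with PEP to NADH oxidation, followed as absorbance decrease at 340 nm. Ki from initial rates at varying compound concentrations.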
# [7] = molecular target: T1, unphosphorylated VEGF-R2Δ50; details: Table 1; compound concentration 50 nM
# [8] = molecular target: CDK2/Cyclin A complex (Homo sapiens, UniProt P24941); assay: CDK2/Cyclin A assay ([32P]ATP incorporation into Rb fragment); assay type: biochemical; details: read-out: CDK2 * (% inhibition)
# [9] = molecular target: CDK1 (Homo sapiens, UniProt P06493); assay: CDK1 assay (Table 3); assay type: biochemical; details: compound concentration 1 µM, NI = no significant inhibition
# [10] = molecular target: CDK4/Cyclin D3 complex (Homo sapiens, UniProt P11802); assay: biochemical; details: read-out: CDK4 * (% inhibition)
# [11] = in vitro; assay type: in vitro ADME, human; details: 2 h
# Procedure, shortened: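 HLM diluted to 5 mg/mL in 100 mM KPO4, preincubated 10 min at 37 °C with NADPH-regenerating system. Compound (5 µM final) incubated at 37 °C in triplicate, sampled at 0 and 2 h into ice-cold acetonitrile, then LC-MS analysis.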
# [12] = molecular target: T3, human FAK (FAKcd409) (Homo sapiens, UniProt Q05397, P410T); assay: FAK fluorescence polarization assay; assay type: biochemical; details: read-out: % Inhibition @ 1 µM FAK
# T3 construct: comprises residues methionine 409 to glutamate 689; made in house; host or cells: baculovirus vector expression system (insect cells)
# Procedure: FAK Construct for Assay. The catalytic domain of human FAK (FAKcd409) was expressed using the baculovirus vector expression system. […] The protein was purified using classical chromatography techniques.
# FAK HTS utilized the fluorescence polarization assay provided by LJL Biosystems. The kinase reaction contained: 100mM Hepes pH 7.5, 10mM MgCl2, 1mM DTT, 1mM ATP, and 1mg/ml poly Glu-Tyr (4: 1). The reaction is initiated by the addition of 5nM FAKcd409. The reaction is terminated by the addition of EDTA followed by addition of fluor-labelled peptide and anti-phosphotyrosine antibody, both provided by LJL Biosystems. Inhibition results are read on a Analyst (LJL) detector.
# [13] = in vivo; details: mouse, plasma, pH 2.3
# [14] = system: VEGF dependent retinal vascular development; assay: In vivo assay of retinal vascular development in neonatal rats; set-up: species or system rat; details: vehicle PEG/water 70:30
# Procedure, shortened: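 Neonatal rats given compound by intravitreal injection, vehicle usually 50% PEG 400/50% 300 mM sucrose, with vehicle in contralateral eye. Retinas removed six days later, ADPase-stained and flat-mounted; stained vessel area quantified by imaging and expressed as percent regression versus vehicle eye.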
# [15] = system: human umbilical vein endothelial cells (HUVEC); assay: HUVEC proliferation assay (VEGF-stimulated, MTT); assay type: cell-based; details: Homo sapiens, HUVEC, Table 1
# [16] = system: VEGF dependent retinal neovascularization; assay: Neonatal rat model of retinopathy of prematurity; assay type: in vivo; details: Model ROP, intravitreal, vehicle PEG/water 70:30
# [17] = Table 3, read-out: CDK1* (% inhibition)
# [18] = human liver microsomes, 5 µM test compound, 37 °C
# [19] = + albumin, read-out: HUVEC + albumin IC50
# Chain of CDK4/Cyclin D3 complex (P11802 whole entry): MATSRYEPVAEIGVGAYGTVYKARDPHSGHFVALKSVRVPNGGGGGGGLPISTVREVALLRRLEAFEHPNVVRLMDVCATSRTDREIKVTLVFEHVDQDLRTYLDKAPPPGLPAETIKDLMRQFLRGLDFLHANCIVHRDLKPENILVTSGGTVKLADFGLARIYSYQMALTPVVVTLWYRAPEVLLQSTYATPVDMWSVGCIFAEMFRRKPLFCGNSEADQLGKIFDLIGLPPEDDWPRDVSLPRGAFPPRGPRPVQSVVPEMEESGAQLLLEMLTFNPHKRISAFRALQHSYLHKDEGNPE
# Chain of CDK4/Cyclin D3 complex (P30281 whole entry partner): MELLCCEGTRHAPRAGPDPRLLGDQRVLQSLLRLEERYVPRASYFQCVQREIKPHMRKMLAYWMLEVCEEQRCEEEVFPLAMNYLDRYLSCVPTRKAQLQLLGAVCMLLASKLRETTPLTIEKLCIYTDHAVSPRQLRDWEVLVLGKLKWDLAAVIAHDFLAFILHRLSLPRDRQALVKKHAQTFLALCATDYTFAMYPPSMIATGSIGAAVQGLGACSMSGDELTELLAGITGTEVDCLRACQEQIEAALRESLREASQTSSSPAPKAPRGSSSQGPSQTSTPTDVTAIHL
# Chain of human FGF-R1 (P11362 456-766 L457V/C488A/C584S): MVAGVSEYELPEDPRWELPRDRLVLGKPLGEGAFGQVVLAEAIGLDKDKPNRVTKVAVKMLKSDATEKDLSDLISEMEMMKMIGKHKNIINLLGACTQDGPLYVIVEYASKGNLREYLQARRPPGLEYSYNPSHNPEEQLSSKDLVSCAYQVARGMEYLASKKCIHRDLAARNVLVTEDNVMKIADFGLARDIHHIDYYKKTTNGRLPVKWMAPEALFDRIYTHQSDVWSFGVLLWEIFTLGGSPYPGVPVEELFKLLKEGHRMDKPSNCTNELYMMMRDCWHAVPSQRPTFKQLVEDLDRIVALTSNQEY
# Chain of CDK1 (P06493 whole entry, species assumed): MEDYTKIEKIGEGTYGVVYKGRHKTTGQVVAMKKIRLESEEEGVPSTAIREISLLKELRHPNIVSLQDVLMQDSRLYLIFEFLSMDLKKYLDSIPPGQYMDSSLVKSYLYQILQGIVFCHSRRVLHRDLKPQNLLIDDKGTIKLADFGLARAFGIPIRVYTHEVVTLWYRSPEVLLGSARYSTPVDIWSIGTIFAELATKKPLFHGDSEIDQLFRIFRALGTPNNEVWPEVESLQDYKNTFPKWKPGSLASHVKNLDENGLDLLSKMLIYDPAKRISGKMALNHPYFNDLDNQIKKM
# Chain of CDK1 (P14635 whole entry partner, species assumed): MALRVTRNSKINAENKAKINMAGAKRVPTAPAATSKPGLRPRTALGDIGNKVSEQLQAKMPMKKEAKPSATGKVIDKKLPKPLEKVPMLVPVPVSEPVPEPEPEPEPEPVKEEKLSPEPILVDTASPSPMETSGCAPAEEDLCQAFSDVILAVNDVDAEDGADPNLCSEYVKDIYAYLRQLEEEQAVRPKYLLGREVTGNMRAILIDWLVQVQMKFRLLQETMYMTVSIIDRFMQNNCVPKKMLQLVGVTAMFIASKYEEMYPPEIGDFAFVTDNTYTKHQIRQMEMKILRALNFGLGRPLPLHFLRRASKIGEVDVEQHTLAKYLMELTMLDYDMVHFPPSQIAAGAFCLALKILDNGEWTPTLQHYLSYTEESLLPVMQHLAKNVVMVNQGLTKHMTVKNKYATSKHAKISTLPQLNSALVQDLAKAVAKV
# Chain of LCK tyrosine kinase (P06239 223-509 P223M/C224D): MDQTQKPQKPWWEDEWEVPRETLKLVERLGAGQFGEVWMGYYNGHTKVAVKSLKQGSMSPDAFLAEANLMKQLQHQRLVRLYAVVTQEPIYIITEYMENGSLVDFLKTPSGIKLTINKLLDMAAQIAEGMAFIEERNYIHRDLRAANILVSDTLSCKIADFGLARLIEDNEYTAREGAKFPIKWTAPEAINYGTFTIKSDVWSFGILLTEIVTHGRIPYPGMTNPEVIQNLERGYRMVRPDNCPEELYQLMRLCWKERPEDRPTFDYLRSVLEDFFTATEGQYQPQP
# T1 sequence (P35968 with tags, fused parts or gaps DEL940-989/E990V limits assumed): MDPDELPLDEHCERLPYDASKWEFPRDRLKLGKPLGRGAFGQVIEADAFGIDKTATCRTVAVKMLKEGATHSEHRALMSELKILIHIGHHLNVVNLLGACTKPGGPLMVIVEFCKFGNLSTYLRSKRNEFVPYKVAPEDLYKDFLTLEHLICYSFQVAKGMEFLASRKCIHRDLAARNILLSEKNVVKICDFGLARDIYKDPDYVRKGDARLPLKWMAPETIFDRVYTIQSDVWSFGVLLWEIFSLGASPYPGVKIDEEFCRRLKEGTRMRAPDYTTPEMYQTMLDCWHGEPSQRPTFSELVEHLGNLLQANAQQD
# Chain of phosphorylated VEGF-R2Δ50 (P35968 with tags, fused parts or gaps DEL940-989/E990V limits assumed): as above
# T3 sequence (Q05397 409-689 P410T): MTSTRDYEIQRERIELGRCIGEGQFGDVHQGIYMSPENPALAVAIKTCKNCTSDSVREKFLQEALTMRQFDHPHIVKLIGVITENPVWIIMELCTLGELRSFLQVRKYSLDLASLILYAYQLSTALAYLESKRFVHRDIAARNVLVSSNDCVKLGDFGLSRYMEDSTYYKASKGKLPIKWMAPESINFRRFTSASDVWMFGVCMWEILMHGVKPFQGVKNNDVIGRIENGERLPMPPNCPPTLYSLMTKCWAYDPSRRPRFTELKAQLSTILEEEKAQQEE
compound,measurement,setting,value
"CC(=O)NC(C(=O)Nc1cccc(C(=O)c2ccc3c(/C=C/c4ccccc4)n[nH]c3c2)c1)c1ccccc1 (stereo not shown) [19(i), 6-[3-(2-acetamido-2-phenylacetamido)benzoyl]-3-E-styryl-1H-indazole]",inhibition at 1 µM,[1],88%
same,Ki,[2],4.7 nM
same,Ki,[3],0.72 nM
same,inhibition at 1 µM,[4],36%
same,IC50,[5],3800 nM
"CCc1cc(O)ccc1-c1ccc2c(-c3nc4ccccc4[nH]3)n[nH]c2c1 [24(e), 3-1H-Benzoimidazol-2-yl-6-(2-ethyl-4-hydroxyphenyl)-1H-indazole]",inhibition at 1 µM,[2],52%
same,inhibition at 1 µM,"[6]; Table 2, compound concentration 1 µM, NI = no significant inhibition",75%
"Oc1ccc(-c2ccc3c(-c4nc5ccccc5[nH]4)n[nH]c3c2)c(O)c1 [24(f), 3-1H-Benzoimidazol-2-yl-6-(2,4-dihydroxyphenyl)-1H-indazole]",inhibition at 1 µM,[2],89%
same,inhibition at 1 µM,[6],97%
NNC(=O)c1ccccc1Sc1ccc2c(C=Cc3ccccn3)n[nH]c2c1 [35(il)],FLVK ** (% inhibition),[7],44%
"OCCOc1cc(-c2ccc3c(/C=C/c4ccccc4)n[nH]c3c2)ccc1O [Reference Example 27(i), 6-[3-(2-hydroxyethoxy)-4-hydroxyphenyl]-3-E-styryl-1H-indazole]",inhibition at 1 µM,[8],73%
same,inhibition at 1 µM,[9]; [17],85%
same,inhibition at 1 µM,[10],92%
"Oc1cccc(-c2ccc3c(/C=C/c4ccccc4)n[nH]c3c2)c1 [Reference Example 28(a), 6-(3-hydrophenyl)-3-E-styryl-1H-indazole]",inhibition at 1 µM,[8],75%
same,inhibition at 1 µM,[9]; [17],77%
same,inhibition at 1 µM,[3]; read-out: FLVK* (% inhibition),84%
same,inhibition at 1 µM,[10],79%
"Oc1ccc(-c2ccc3c(/C=C/c4ccccc4)n[nH]c3c2)cc1O [Reference Example 28(d), 6-(3,4-dihydroxyphenyl)-3-E-styryl-1H-indazole]",inhibition at 1 µM,[8],66%
same,inhibition at 1 µM,[9]; [17],93%
same,inhibition at 1 µM,[10],87%
Clc1ccc(/C=C/c2n[nH]c3cc(-c4ccncc4)ccc23)cc1 [Reference Example 29(c)],inhibition at 1 µM,"[9]; read-out: CDK1* (% inhibition), Table 3",56%
"Cc1nc(/C=C/c2n[nH]c3cc(-c4ccncc4)ccc23)cs1 [Reference Example 29(j), 6-pyrid-4-yl-3-E-[2-(2-methylthiazol-4-yl)ethenyl]-1H-indazole]",inhibition at 1 µM,[9]; [17],31%
"Fc1cc(F)cc(/C=C/c2n[nH]c3cc(-c4ccncc4)ccc23)c1 [Reference Example 29(m), 6-pyrid-4-yl-3-E-[2-(3,5-difluorophenyl)ethenyl]-1H-indazole]",inhibition at 1 µM,[9]; [17],54%
"FC(F)(F)Oc1cccc(/C=C/c2n[nH]c3cc(-c4ccncc4)ccc23)c1 [Reference Example 29(p), 6-pyrid-4-yl-3-E-[2-(3-trfluorometboxyphenyl)ethenyl]-1H-indazole]",inhibition at 1 µM,[9]; [17],6%
"CNC(=O)c1ccccc1Sc1ccc2c(/C=C/c3ccccn3)n[nH]c2c1 [Reference Example 33(a), 6-[2-(methylcarbamoyl)phenylsulfanyl]-3-E[2-(pyridin-2-yl)ethenyl]indazole]","% remain (HLM, 2 h)","[11]; human, microsomes, 5 µM",29%
same,inhibition at 1 µM,[12],12%
same,inhibition at 0.05 µM,[2],42%
same,AUC,"[13]; ip, 25 mg/kg",13800 ng·h/mL
same,AUC,"[13]; po, 50 mg/kg",19100 ng·h/mL
same,inhibition at 1 µM,[10],7%
"O=C(NC1CC1)c1ccccc1Sc1ccc2c(/C=C/c3ccccn3)n[nH]c2c1 [Reference Example 33(e), 6-[2-(cyclopropylcarbamoyl)phenylsulfanyl]-3-E-[2-(pyridin-2-yl)ethenyl]-1H--1H-indazole]","% remain (HLM, 2 h)",[11]; [18],54%
same,inhibition at 1 µM,[1],68%
same,inhibition at 0.05 µM,[2],70%
same,% Inhibition,"[14]; Model P8, intravitreal, 5 mg/ml",22%
same,IC50,[15]; [19],5 nM
same,IC50,[15]; read-out: HUVEC IC50,0.46 nM
same,inhibition at 1 µM,[4],2%
"O=C(Nc1ccc(N2CCNCC2)c(C(F)(F)F)c1)c1ccccc1Sc1ccc2c(/C=C/c3ccccc3)n[nH]c2c1 [Reference Example 38(b), 6-[2-((4-piperizin-1-yl-3-trifluoromethylphenyl)carbamoyl)phenylsulfanyl]-3-E-(2-styryl)-1H-indazole]",inhibition at 0.05 µM,[2],72%
same,IC50,[15]; read-out: HUVEC IC50,79 nM
"C/C=C/C(=O)Nc1cccc(C(=O)c2ccc3c(/C=C/c4ccccn4)n[nH]c3c2)c1 [Reference Example 41(c), 6-(3-crotonylamidobenzoyl)-3-E-[2-(pyridio-2-yl)ethenyl]-1H-indazole]","% remain (HLM, 2 h)",[11]; [18],68%
same,inhibition at 1 µM,[1],77%
same,inhibition at 0.05 µM,[2],83%
same,IC50,[15]; [19],5.3 nM
same,IC50,[15]; read-out: HUVEC IC50,0.4 nM
same,inhibition at 1 µM,[4],36%
"O=C(Cc1cc(F)cc(F)c1)Nc1cccc(C(=O)c2ccc3c(/C=C/c4ccccn4)n[nH]c3c2)c1 [Reference Example 41(f), 6-[3-(3,5-difluorophenylacetamido)benzoyl]-3-E-[2-(pyridin-2-yl)ethenyl]-1H-indazole]","% remain (HLM, 2 h)",[11]; [18],59%
same,inhibition at 1 µM,[1],92%
same,inhibition at 0.05 µM,[2],84%
same,inhibition at 1 µM,[4],65%
"O=C(Nc1cccc(C(=O)c2ccc3c(/C=C/c4ccccn4)n[nH]c3c2)c1)c1ccccc1 [Reference Example 42(a), 6-(3-Benzamidobenzoyl)-3-E-[2-(pyridin-2-yl)ethenyl]-1H-indazole]","% remain (HLM, 2 h)",[11]; [18],92%
same,inhibition at 0.05 µM,[2],79%
same,% Inhibition,"[14]; Model P6-P10, IP*",61%
same,% Inhibition,"[14]; Model P9, intravitreal, 10 mg/ml",55%
same,% Inhibition,[16]; 1 mg/ml,1%
same,Initial Evaluation,[16]; 1 mg/ml,+ (one plus being detectable regression judged to be approximately 25 percent or less)
same,% Inhibition,[16]; 10 mg/ml,23%
same,IC50,[5],5500 nM
